Read-outs that look alike come from different tables or passages of the source.
Key:
intragastric pH = experiment: Colonic intubation study: intragastric pH profile (percent of time with pH >4); assay type: in vivo, human
Method: A single-dose, open-label, partially randomized, five-treatment, five-period, crossover pilot study was performed in healthy males to determine relative pharmacokinetics of rabeprazole, and comparators when dosed either orally or colonically. The study was a single dose study with blood sampling up to 24 hours following initiation.
Treatments A and B were rabeprazole sodium solution dosed to provide 30 and 60 mg, respectively, over 20 hours in the transverse colon of the subjects. Colonic dosing occurred using a nasoenteral tube. Treatment C was a single 20 mg dose of rabeprazole sodium oral enteric coated tablets dosed orally. Treatment D was placebo (200 mL of water) dosed orally.
The intragastric pH profile was analyzed based on the percentage of time that the intragastric pH was above 4, which was calculated for the full 24 hours. In addition, the mean pH value over 5 time intervals of 6 hours each during the 30-hr sampling time was also estimated.

[1] = Colonic intubation study: plasma pharmacokinetics of rabeprazole and esomeprazole; assay type: in vivo, human; conditions: for AUC(0-inf): read-out: AUCinf (mean)
Method: A single-dose, open-label, partially randomized, five-treatment, five-period, crossover pilot study was performed in healthy males to determine relative pharmacokinetics of rabeprazole, and comparators when dosed either orally or colonically. The study was a single dose study with blood sampling up to 24 hours following initiation. […] Colonic dosing occurred using a nasoenteral tube. Treatment C was a single 20 mg dose of rabeprazole sodium oral enteric coated tablets dosed orally. Treatment D was placebo (200 mL of water) dosed orally. […] For subjects whose apparent elimination rate constant [k] could not be properly determined, the AUC to infinity [AUCinf]) was calculated based on the median apparent elimination constant [k] of the subjects with available t1/2 values in the same treatment period. […] The intragastric pH profile were determined.

[2] = male, human, plasma, other: colonic (nasoenteral tube into the transverse colon), 30 mg, TRT A: rabeprazole 30 mg solution in the colon over 20 hours, N = 19
[3] = male, human, plasma, other: colonic (nasoenteral tube into the transverse colon), 30 mg, TRT A: rabeprazole 30 mg solution in the colon over 20 hours, subset N = 14
[4] = male, human, plasma, other: colonic (nasoenteral tube into the transverse colon), 60 mg, TRT B: rabeprazole 60 mg solution in the colon over 20 hours, N = 19
[5] = male, human, plasma, other: colonic (nasoenteral tube into the transverse colon), 60 mg, TRT B: rabeprazole 60 mg solution in the colon over 20 hours, subset N = 14
[6] = male, human, plasma, po, 20 mg, TRT C: rabeprazole 20 mg oral tablet, N = 19
[7] = male, human, plasma, po, 20 mg, TRT C: rabeprazole 20 mg oral tablet, subset N = 14

COCCCOc1ccnc(C[S+]([O-])c2nc3ccccc3[nH]2)c1C (centres unmarked) [Rabeprazole, 2-[[[4-(3-methoxypropoxy)-3-methyl-2-pyridinyl]-methyl]sulfinyl]-1H-benzimidazole]
Mean percent of time with pH >4 (intragastric pH; 0-6 hr (10 am-4 pm), TRT A: rabeprazole 30 mg solution in the colon, N = 19): 30.6% | Mean percent of time with pH >4 (intragastric pH; 0-6 hr (10 am-4 pm), TRT B: rabeprazole 60 mg solution in the colon, N = 19): 32.6% | Mean percent of time with pH >4 (intragastric pH; 0-6 hr (10 am-4 pm), TRT B: rabeprazole 60 mg solution in the colon, subset N = 14): 34.6% | Mean percent of time with pH >4 (intragastric pH; 0-6 hr (10 am-4 pm), TRT C: rabeprazole 20 mg oral tablet, N = 19): 31.1% | Mean percent of time with pH >4 (intragastric pH; 0-6 hr (10 am-4 pm), TRT C: rabeprazole 20 mg oral tablet, subset N = 14): 29.1% | Mean percent of time with pH >4 (intragastric pH; 6-12 hr (4 pm-10 pm), TRT A: rabeprazole 30 mg solution in the colon, N = 19): 37.9% | Mean percent of time with pH >4 (intragastric pH; 6-12 hr (4 pm-10 pm), TRT B: rabeprazole 60 mg solution in the colon, N = 19): 50.5% | Mean percent of time with pH >4 (intragastric pH; 6-12 hr (4 pm-10 pm), TRT B: rabeprazole 60 mg solution in the colon, subset N = 14): 55.8% | Mean percent of time with pH >4 (intragastric pH; 6-12 hr (4 pm-10 pm), TRT C: rabeprazole 20 mg oral tablet, N = 19): 60.9% | Mean percent of time with pH >4 (intragastric pH; 6-12 hr (4 pm-10 pm), TRT C: rabeprazole 20 mg oral tablet, subset N = 14): 63.6% | Mean percent of time with pH >4 (intragastric pH; 12-18 hr (10 pm-4 am), TRT A: rabeprazole 30 mg solution in the colon, N = 19): 23.2% | Mean percent of time with pH >4 (intragastric pH; 12-18 hr (10 pm-4 am), TRT B: rabeprazole 60 mg solution in the colon, N = 19): 34.3% | Mean percent of time with pH >4 (intragastric pH; 12-18 hr (10 pm-4 am), TRT B: rabeprazole 60 mg solution in the colon, subset N = 14): 39.9% | Mean percent of time with pH >4 (intragastric pH; 12-18 hr (10 pm-4 am), TRT C: rabeprazole 20 mg oral tablet, N = 19): 25.9% | Mean percent of time with pH >4 (intragastric pH; 12-18 hr (10 pm-4 am), TRT C: rabeprazole 20 mg oral tablet, subset N = 14): 26.7% | Mean percent of time with pH >4 (intragastric pH; 18-24 hr (4 am-10 am), TRT A: rabeprazole 30 mg solution in the colon, N = 19): 47.2% | Mean percent of time with pH >4 (intragastric pH; 18-24 hr (4 am-10 am), TRT B: rabeprazole 60 mg solution in the colon, N = 19): 64.0% | Mean percent of time with pH >4 (intragastric pH; 18-24 hr (4 am-10 am), TRT B: rabeprazole 60 mg solution in the colon, subset N = 14): 68.9% | Mean percent of time with pH >4 (intragastric pH; 18-24 hr (4 am-10 am), TRT C: rabeprazole 20 mg oral tablet, N = 19): 37.8% | Mean percent of time with pH >4 (intragastric pH; 18-24 hr (4 am-10 am), TRT C: rabeprazole 20 mg oral tablet, subset N = 14): 35.4% | Mean percent of time with pH >4 (intragastric pH; 24-30 hr (10 am-4 pm), TRT A: rabeprazole 30 mg solution in the colon, N = 19): 45.4% | Mean percent of time with pH >4 (intragastric pH; 24-30 hr (10 am-4 pm), TRT B: rabeprazole 60 mg solution in the colon, N = 19): 64.4% | Mean percent of time with pH >4 (intragastric pH; 24-30 hr (10 am-4 pm), TRT B: rabeprazole 60 mg solution in the colon, subset N = 14): 72.0% | Mean percent of time with pH >4 (intragastric pH; 24-30 hr (10 am-4 pm), TRT C: rabeprazole 20 mg oral tablet, N = 19): 43.6% | Mean percent of time with pH >4 (intragastric pH; 24-30 hr (10 am-4 pm), TRT C: rabeprazole 20 mg oral tablet, subset N = 14): 45.4% | Mean percent of time with pH >4 (intragastric pH; 24-hr average, TRT A: rabeprazole 30 mg solution in the colon, N = 19): 34.7% | Mean percent of time with pH >4 (intragastric pH; 24-hr average, TRT A: rabeprazole 30 mg solution in the colon, N = 19, listed as rabeprazole): 35% | Mean percent of time with pH >4 (intragastric pH; 24-hr average, TRT B: rabeprazole 60 mg solution in the colon, N = 19): 44.9% | Mean percent of time with pH >4 (intragastric pH; 24-hr average, TRT B: rabeprazole 60 mg solution in the colon, N = 19, listed as rabeprazole): 45% | Mean percent of time with pH >4 (intragastric pH; 24-hr average, TRT B: rabeprazole 60 mg solution in the colon, subset N = 14): 49.2% | Mean percent of time with pH >4 (intragastric pH; 24-hr average, TRT C: rabeprazole 20 mg oral tablet, N = 19): 38.9% | Mean percent of time with pH >4 (intragastric pH; 24-hr average, TRT C: rabeprazole 20 mg oral tablet, N = 19, listed as rabeprazole): 39% | Mean percent of time with pH >4 (intragastric pH; 24-hr average, TRT C: rabeprazole 20 mg oral tablet, subset N = 14): 38.7% | dose dependence of percentage of time with pH >4 (intragastric pH; 30 and 60 mg colonic rabeprazole treatments, 6-12 h period and beyond): dose-dependent increase | effect on percentage of time with pH >4 compared to placebo (intragastric pH; first 6 hours of treatment, rabeprazole Treatments A, B and C): not significantly different from placebo | gastric pH control compared with rabeprazole 20 mg tablet (intragastric pH; rabeprazole 60 mg colonic treatment, especially during the night-time period (12-30 hr)): better gastric pH control | dose proportionality of mean Cmax and AUC ([1]; 30 mg and 60 mg colonic treatments): increased approximately dose proportionally | Tmax ([1]; male, human, plasma, other: colonic (nasoenteral tube into the transverse colon), 30 mg, 30 mg rabeprazole colonic solution treatment, after start of treatment (colon infusion ended at 20 hr), read-out: median Tmax): ~18 h | AUC(0-t) [1, 2]: 287 ng·h/mL | AUC(0-inf) [1, 2]: 332 ng·h/mL | Tmax ([1]; male, human, plasma, other: colonic (nasoenteral tube into the transverse colon), 30 mg, TRT A: rabeprazole 30 mg solution in the colon over 20 hours, N = 19, read-out: Tmax (median)): 18 h | half-life ([1]; male, human, plasma, other: colonic (nasoenteral tube into the transverse colon), 30 mg, TRT A: rabeprazole 30 mg solution in the colon over 20 hours, N = 19, read-out: t1/2 (median) (converted)): 2 h | Cmax ([1]; male, human, plasma, other: colonic (nasoenteral tube into the transverse colon), 30 mg, TRT A: rabeprazole 30 mg solution in the colon over 20 hours, single dose, healthy males, N = 19): 18 ng/mL | AUC(0-t) [1, 3]: 290 ng·h/mL | AUC(0-inf) [1, 3]: 343 ng·h/mL | half-life ([1]; male, human, plasma, other: colonic (nasoenteral tube into the transverse colon), 30 mg, TRT A: rabeprazole 30 mg solution in the colon over 20 hours, subset N = 14, read-out: t1/2 (median) (converted)): 2 h | Tmax ([1]; male, human, plasma, other: colonic (nasoenteral tube into the transverse colon), 60 mg, 60 mg rabeprazole colonic solution treatment, after start of treatment (colon infusion ended at 20 hr), read-out: median Tmax): ~18 h | AUC(0-t) [1, 4]: 549 ng·h/mL | AUC(0-inf) [1, 4]: 599 ng·h/mL | Tmax ([1]; male, human, plasma, other: colonic (nasoenteral tube into the transverse colon), 60 mg, TRT B: rabeprazole 60 mg solution in the colon over 20 hours, N = 19, read-out: Tmax (median)): 18 h | half-life ([1]; male, human, plasma, other: colonic (nasoenteral tube into the transverse colon), 60 mg, TRT B: rabeprazole 60 mg solution in the colon over 20 hours, N = 19, read-out: t1/2 (median) (converted)): 1.9 h | Cmax ([1]; male, human, plasma, other: colonic (nasoenteral tube into the transverse colon), 60 mg, TRT B: rabeprazole 60 mg solution in the colon over 20 hours, single dose, healthy males, N = 19): 38.4 ng/mL | AUC(0-t) [1, 5]: 586 ng·h/mL | AUC(0-inf) [1, 5]: 646 ng·h/mL | half-life ([1]; male, human, plasma, other: colonic (nasoenteral tube into the transverse colon), 60 mg, TRT B: rabeprazole 60 mg solution in the colon over 20 hours, subset N = 14, read-out: t1/2 (median) (converted)): 2.1 h | half-life ([1]; male, human, plasma, other: colonic (nasoenteral tube into the transverse colon), rabeprazole following colonic treatment, read-out: median plasma half-life (converted)): ~2 h | bioavailability ([1]; male, human, plasma, other: colonic (nasoenteral tube into the transverse colon), colonic treatment compared to oral tablets, dose-normalized basis, read-out: percent relative bioavailability (colonic bioavailability)): ~40% | Cmax ([1]; male, human, plasma, other: colonic (transverse colon, via nasoenteral tube), 30 mg, TRT A: rabeprazole 30 mg solution in the colon over 20 hours, subset N = 14): 18.7 ng/mL | Tmax ([1]; male, human, plasma, other: colonic (transverse colon, via nasoenteral tube), 30 mg, TRT A: rabeprazole 30 mg solution in the colon over 20 hours, subset N = 14, read-out: Tmax (median)): 18 h | Cmax ([1]; male, human, plasma, other: colonic (transverse colon, via nasoenteral tube), 60 mg, TRT B: rabeprazole 60 mg solution in the colon over 20 hours, subset N = 14): 43.7 ng/mL | Tmax ([1]; male, human, plasma, other: colonic (transverse colon, via nasoenteral tube), 60 mg, TRT B: rabeprazole 60 mg solution in the colon over 20 hours, subset N = 14, read-out: Tmax (median)): 18 h | Tmax ([1]; male, human, plasma, po, 20 mg, 20 mg rabeprazole oral tablet treatment, read-out: median Tmax): 4.5 to 6 h | AUC(0-t) [1, 6]: 534 ng·h/mL | AUC(0-inf) [1, 6]: 603 ng·h/mL | Tmax ([1]; male, human, plasma, po, 20 mg, TRT C: rabeprazole 20 mg oral tablet, N = 19, read-out: Tmax (median)): 4.5 h | half-life ([1]; male, human, plasma, po, 20 mg, TRT C: rabeprazole 20 mg oral tablet, N = 19, read-out: t1/2 (median) (converted)): 0.96 h | Cmax ([1]; male, human, plasma, po, 20 mg, TRT C: rabeprazole 20 mg oral tablet, single dose, healthy males, N = 19): 239 ng/mL | AUC(0-t) [1, 7]: 619 ng·h/mL | Cmax [1, 7]: 267 ng/mL | AUC(0-inf) [1, 7]: 697 ng·h/mL | Tmax ([1]; male, human, plasma, po, 20 mg, TRT C: rabeprazole 20 mg oral tablet, subset N = 14, read-out: Tmax (median)): 6 h | half-life ([1]; male, human, plasma, po, 20 mg, TRT C: rabeprazole 20 mg oral tablet, subset N = 14, read-out: t1/2 (median) (converted)): 1 h | half-life ([1]; male, human, plasma, po, 20 mg, rabeprazole following oral administration, read-out: median plasma half-life (converted)): ~1 h | AUC compared with 20 mg oral tablet ([1]; rabeprazole 60 mg colonic treatment): comparable AUC

From patent US20070298105A1, “METHODS OF TREATING CONDITIONS BY SUSTAINED RELEASE ADMINISTRATION OF BENZIMIDAZOLE DERIVATIVES” (priority 2006, published 2007)
